Laboratory results published in PubChem BioAssay AID1963436 (Molecular Pharmacology Branch, DTP, NCI, 2024).

Tested on: OVCAR-5 complex spheroid (HUVEC/MSC), viability % T/C
Test: Anticancer human tumor OVCAR-5 cell line growth inhibition [Asc];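 also: spheroids exposed to agents for 7 days before readout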;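 as to viability, T/C: 100% = DMSO vehicle-treated wells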
Conditions: for IC50: curve of first compound; for viability, T/C: stronger effect = lower value
Procedure: Multicellular complex tumor spheroid response to apoptosis pathway targeting inhibitors Alrizomadlin, Pelcitoclax, and Dasminapant in combination with a variety of drugs and investigational agents in selected tumor cell lines
The MDM2 inhibitor alrizomadlin, the Bcl-2/Bcl-xL inhibitor pelcitoclax, and the IAPs inhibitor dasminapant were evaluated both individually and in combination with standard of care and investigational anticancer small molecules within a complex spheroid model of solid tumors. . Complex spheroids include a stromal component modeled by human endothelial cells (HUVEC) and fibroblasts modeled by human mesenchymal stem cells (MSCs). The concentration ranges selected for each drug and investigational agent were based upon clinically achievable concentrations if the clinical Cmax of the agent was known.
Compounds. The drugs and investigational agents: alrizomadlin (APG-115; NSC831270), pelcitoclax (APG-1252; NSC835773), dasminapant (APG-1387;NSC834197), TAK-243 (NSC785004), copanlisib (NSC809693), olaparib (NSC753686), talazoparib (NSC767125), cobimetinib (NSC 768068), eltanexor (KPT-8602, NSC 794443), abemaciclib (NSC 768073), sotorasib (NSC818433), adagrasib (NSC 831453), MRTX-1133 (NSC 836407), Iadademestat (ORY1001, NSC 806812), and RMC-4630 (NSC839698), were obtained from the NCI Developmental Therapeutics Program Chemical Repository. The FDA-approved anticancer drug set is available from the Developmental Therapeutics Program at https://dtp.cancer.gov/organization/dscb/obtaining/available plates.htm. […] The stock solutions were prepared in dimethyl sulfoxide (DMSO, Sigma-Aldrich, St. Louis, MO, cat. D2650) at 800-fold the tested concentration and stored at -70 degrees C prior to their use. All drugs and investigational agents were tested over a range starting from a high concentration at or near the clinical Cmax and decreasing in half-log increments. If the clinical Cmax for an agent had not been determined, the highest concentration tested was 10 microM.
The patient-derived cancer (PDC) cell lines include five colon adenocarcinomas: 186277-243-T-J2-PDC, 616215-338-R-J1-PDC, 439559-082-T-J2-PDC, 463943-066-T-J2-PDC, and 519858-162-T-J1-PDC; three pancreatic carcinomas: 323965-272-R-J2-PDC, 521955-158-R6-J3-PDC, and 521955-158-R2-J5-PDC; two uterine sarcomas: 327498-152-R-J2-PDC and 993429-296-R-J1-PDC; two rhabdomyosarcomas: 755483-174-R-J1-PDC and 772245-204-R-J1-PDC; two soft tissue sarcomas: 126254-015-R-J1-PDC and 494315-158-R-J1-PDC; two malignant fibrous histiocytomas: 317291-083-R-J1-PDC and 596521-263-R-J1-PDC; two breast carcinomas: 171881-019-R-J1-PDC and 885512-296-R-J2-PDC; and one ovarian carcinoma: 6556581-035-R-J-PDC were obtained from the NCI PDMR, (https://pdmr.cancer.gov). The established cell lines HSSY-2 synovial sarcoma (RRID:CVCL 8719), SYO-1 synovial sarcoma (RRID:CVCL_7146), MPNST malignant peripheral neural sheath tumor were obtained from the Sloan Kettering Institute. The following established cell lines were purchased from the American Type Culture Collection (ATCC, Manassas, VA), Sor the received from the NCI repository:, PANC-1 pancreatic carcinoma (CRL-1469, RRID:CVCL_0480), OVCAR-5 ovarian carcinoma (RRID:CVCL_1628), OVCAR-8 ovarian carcinoma (RRID:CVCL_1629), , MCF-7 breast carcinoma (CRL-12584, RRID:CVCL_0031), MDA-MB-231 breast carcinoma (CRL-12532, RRID:CVCL_0062), NCI-H1876 small cell lung carcinoma (CRL-5902, RRID:CVCL_1503), NCI-H510A small cell lung carcinoma (HTB-184, RRID:CVCL_1565), NCI-H1417 (CRL-5869, RRID:CVCL_1469), and NCI-H196 small cell lung carcinoma (CRL-5823, RRID:CVCL_1509). Dr. Peter Houghton (Greehey Children's Cancer Research Institute, University of Texas Health Science Center, San Antonio, TX) provided Rh-18 rhabdomyosarcoma (RRID:CVCL_1659). Pooled donor human umbilical vein endothelial cells (HUVEC, Lonza, cat. CC-2519) and human mesenchymal stem cells (hMSC, Lonza, cat. PT-2501) were purchased from Lonza (Walkersville, MD).
Cell Culture. […]

## NC1CCC(NC2CC2c2ccccc2)CC1 (stereo not given) + CCN1C(C(=O)NC23CCC(C(=O)O)(CC2)CC3)C(c2cccc(Cl)c2F)C2(C(=O)Nc3cc(Cl)ccc32)C12CCCCC2
Second compound 0.03 µM
  IC50: > 0.1 µM
Second compound 0.0949 µM
  IC50: > 0.1 µM
Second compound 0.3 µM
  IC50: > 0.1 µM
Second compound 0.949 µM
  IC50: > 0.1 µM
Second compound 3 µM
  IC50: > 0.1 µM
Second compound 0.03 µM, first compound 0.000316 µM
  viability, T/C: 98.4%
Second compound 0.03 µM, first compound 0.001 µM
  viability, T/C: 90.7%
Second compound 0.03 µM, first compound 0.00316 µM
  viability, T/C: 88.6%
Second compound 0.03 µM, first compound 0.01 µM
  viability, T/C: 85.9%
Second compound 0.03 µM, first compound 0.0316 µM
  viability, T/C: 97.3%
Second compound 0.03 µM, first compound 0.1 µM
  viability, T/C: 89.8%
Second compound 0.0949 µM, first compound 0.000316 µM
  viability, T/C: 89.9%
Second compound 0.0949 µM, first compound 0.001 µM
  viability, T/C: 100%
Second compound 0.0949 µM, first compound 0.00316 µM
  viability, T/C: 88.5%
Second compound 0.0949 µM, first compound 0.01 µM
  viability, T/C: 82.5%
Second compound 0.0949 µM, first compound 0.0316 µM
  viability, T/C: 93%
Second compound 0.0949 µM, first compound 0.1 µM
  viability, T/C: 85.7%
Second compound 0.3 µM, first compound 0.000316 µM
  viability, T/C: 89.9%
Second compound 0.3 µM, first compound 0.001 µM
  viability, T/C: 90.9%
Second compound 0.3 µM, first compound 0.00316 µM
  viability, T/C: 93.2%
Second compound 0.3 µM, first compound 0.01 µM
  viability, T/C: 77.5%
Second compound 0.3 µM, first compound 0.0316 µM
  viability, T/C: 94.3%
Second compound 0.3 µM, first compound 0.1 µM
  viability, T/C: 97.3%
Second compound 0.949 µM, first compound 0.000316 µM
  viability, T/C: 89.4%
Second compound 0.949 µM, first compound 0.001 µM
  viability, T/C: 97.9%
Second compound 0.949 µM, first compound 0.00316 µM
  viability, T/C: 97.6%
Second compound 0.949 µM, first compound 0.01 µM
  viability, T/C: 88.9%
Second compound 0.949 µM, first compound 0.0316 µM
  viability, T/C: 85.5%
Second compound 0.949 µM, first compound 0.1 µM
  viability, T/C: 95.2%
Second compound 3 µM, first compound 0.000316 µM
  viability, T/C: 102%
Second compound 3 µM, first compound 0.001 µM
  viability, T/C: 99.6%
Second compound 3 µM, first compound 0.00316 µM
  viability, T/C: 105%
Second compound 3 µM, first compound 0.01 µM
  viability, T/C: 83.7%
Second compound 3 µM, first compound 0.0316 µM
  viability, T/C: 89.5%
Second compound 3 µM, first compound 0.1 µM
  viability, T/C: 91.5%

## NC1CCC(NC2CC2c2ccccc2)CC1 (stereo not given) + CNC(C)C(=O)NC1CN(S(=O)(=O)c2cccc(S(=O)(=O)N3CCC4CCC(C(=O)NC(c5ccccc5)c5ccccc5)N4C(=O)C(NC(=O)C(C)NC)C3)c2)CCC2CCC(C(=O)NC(c3ccccc3)c3ccccc3)N2C1=O
Second compound 0.01 µM
  IC50: > 0.1 µM
Second compound 0.0316 µM
  IC50: > 0.1 µM
Second compound 0.1 µM
  IC50: > 0.1 µM
Second compound 0.316 µM
  IC50: > 0.1 µM
Second compound 1 µM
  IC50: > 0.1 µM
Second compound 0.01 µM, first compound 0.000316 µM
  viability, T/C: 92.9%
Second compound 0.01 µM, first compound 0.001 µM
  viability, T/C: 89.8%
Second compound 0.01 µM, first compound 0.00316 µM
  viability, T/C: 80.8%
Second compound 0.01 µM, first compound 0.01 µM
  viability, T/C: 84.8%
Second compound 0.01 µM, first compound 0.0316 µM
  viability, T/C: 80.8%
Second compound 0.01 µM, first compound 0.1 µM
  viability, T/C: 79.9%
Second compound 0.0316 µM, first compound 0.000316 µM
  viability, T/C: 75.8%
Second compound 0.0316 µM, first compound 0.001 µM
  viability, T/C: 77.7%
Second compound 0.0316 µM, first compound 0.00316 µM
  viability, T/C: 75.6%
Second compound 0.0316 µM, first compound 0.01 µM
  viability, T/C: 71.5%
Second compound 0.0316 µM, first compound 0.0316 µM
  viability, T/C: 69.1%
Second compound 0.0316 µM, first compound 0.1 µM
  viability, T/C: 66.9%
Second compound 0.1 µM, first compound 0.000316 µM
  viability, T/C: 76.5%
Second compound 0.1 µM, first compound 0.001 µM
  viability, T/C: 70%
Second compound 0.1 µM, first compound 0.00316 µM
  viability, T/C: 75.5%
Second compound 0.1 µM, first compound 0.01 µM
  viability, T/C: 67.3%
Second compound 0.1 µM, first compound 0.0316 µM
  viability, T/C: 74.5%
Second compound 0.1 µM, first compound 0.1 µM
  viability, T/C: 71%
Second compound 0.316 µM, first compound 0.000316 µM
  viability, T/C: 66.1%
Second compound 0.316 µM, first compound 0.001 µM
  viability, T/C: 73%
Second compound 0.316 µM, first compound 0.00316 µM
  viability, T/C: 66.2%
Second compound 0.316 µM, first compound 0.01 µM
  viability, T/C: 70.4%
Second compound 0.316 µM, first compound 0.0316 µM
  viability, T/C: 75.1%
Second compound 0.316 µM, first compound 0.1 µM
  viability, T/C: 75.7%
Second compound 1 µM, first compound 0.000316 µM
  viability, T/C: 72.1%
Second compound 1 µM, first compound 0.001 µM
  viability, T/C: 74.1%
Second compound 1 µM, first compound 0.00316 µM
  viability, T/C: 70.5%
Second compound 1 µM, first compound 0.01 µM
  viability, T/C: 72.4%
Second compound 1 µM, first compound 0.0316 µM
  viability, T/C: 80.8%
Second compound 1 µM, first compound 0.1 µM
  viability, T/C: 78.1%
